From US10738074B2, “Cyclic di-nucleotide compounds as STING agonists” (Merck Sharp & Dohme Corp., priority 2015, dated 2020)

Key:
full-length WT STING = full-length WT STING (Homo sapiens (Human), UniProt Q86WV6, H232R); experiment: 3H-cGAMP filtration binding assay (WT STING); details: competition with tritiated cGAMP, WT STING membrane
From the text: (§1) The ability of compounds to bind STING is quantified by their ability to compete with tritiated cGAMP ligand for human STING receptor membrane using a radioactive filter-binding assay. The binding assay employs STING receptor obtained from Trichoplusia ni cell membranes (Tni; Expression Systems, cat #94-002F, www.expressionsystems.com) overexpressing full-length WT STING prepared in-house and tritiated cGAMP ligand also purified in-house.
The basic WT STING filtration assay protocol is as follows:
The filter plates were then dried at 55° C. for 30 min using a pressurized VWR oven before 30 uL of Ultima GoldF scintillate was added to each well. Tritium levels for each reaction well were then measured using a PerkinElmer TopCount plate reader.
(§2) After normalization to controls, the percent activity for each compound concentration was calculated by measuring the amount of remaining radioactivity. The plot of percent activity versus the log of compound concentration was fit with a 4-parameter dose response equation to calculate EC50 values.

THP1 cells = experiment: IFN-β secretion in THP1 cell culture (5 h); format: cell-based, human; details: IFN-β secretion, THP1 cells, 5 h, 30 μM; for activation at 30 µM: Homo sapiens, THP-1, 5 h, read-out: % Effect at 30 μM relative to 2′3′-cGAMP
Procedure: The ability of compounds to stimulate the secretion of interferon-beta from THP1 cells was measured using a human IFN-β AlphaLISA kit (Perkin Elmer, Cat. No. AL265F). The basic protocol is as follows:
A Labcyte Echo 550 acoustic dispenser was used to transfer 120 nL of compound dissolved in DMSO into the wells of an empty, sterile 384-well microplate, (Corning, Cat. No. 3712). THP1 cells (American Type Culture Collection, Cat. No. TIB202) previously frozen in Recovery Medium (Life Technologies, Cat. No. 12648-010) were thawed and immediately diluted 10-fold into 37° C. assay medium (RPMI 1640+L-Glutamine & phenol red, Life Technologies, Cat. No. 11875-085; 0.5% heat inactivated fetal bovine serum, Sigma Aldrich, Cat. No. F4135; 1 mM Sodium Pyruvate, Life Technologies, Cat. No. 11360-070; lx non-essential amino acids; Life Technologies, Cat. No. 11140-050). The cell viability and count was ascertained using a Beckman Coulter V-Cell XR cell counter. The cells suspension was centrifuged at 200×g for 5 min at RT. Cells were resuspended to a density of 0.8×10^6/mL in 37° C. assay medium. Subsequent liquid transfers were performed using either a Matrix electronic multichannel pipette or an Agilent Bravo Automated Liquid Handling Platform.
The assay was started by dispensing 40 μL of the previously prepared cell suspension into the wells of the plate containing compounds. After 5 h incubation at 37° C., 5% CO2 in a humidified atmosphere, the plate of cells and compounds was centrifuged at 200×g for 5 min at RT. From each well, 5 μL of supernatant was transferred into corresponding wells of a white 384-well plate (Perkin Elmer, Cat. No. 6005620). To these supernatant-containing wells was added 10 μL of 5× Anti-Analyte Acceptor beads (50 μg/mL of AlphaLISA HiBlock Buffer) and incubated for 30 min at RT while shaking on an orbital plate shaker. To each well was added 10 μL of 5× Biotinylated Antibody Anti-analyte (5 nM in AlphaLISA HiBlock Buffer) and incubated on an orbital plate shaker for 60 min at RT or overnight at 4° C. To each well was added 25 μL of 2× SA-Donor beads (80 μg/mL in AlphaLISA HiBlock Buffer) and incubated for 30-45 min at RT in the dark while shaking on an orbital plate shaker. The plate was then read on a Perkin Elmer Envision (λex=680 nm, λem=[…]). The percent effect of the AlphaLISA signal at each compound concentration was calculated based on 30 uM cGAMP positive controls and 0.3% DMSO negative controls. The plot of percent effect versus the log of compound concentration was fit with a 4-parameter concentration response equation to calculate EC50 values. The test compounds were tested at concentrations 30000, 10000, 3333, 1111, 370.4, 123.4, 41.2, 13.7, 4.6, and 1.5 nM with 0.3% residual DMSO.
Compounds of the disclosure were evaluated for IFN-β secretion in THP1 cell culture as described above. The following table tabulates the biological data for these compounds as percent activation relative to 2′3′-cGAMP at the 30 μM concentration.

full-length HAQ STING = full-length HAQ STING (Homo sapiens (Human), UniProt Q86WV6, G230A/H232R/R293Q/R71H); experiment: 3H-cGAMP filtration binding assay (HAQ STING); details: competition with tritiated cGAMP, HAQ STING membrane
full-length HAQ STING, sequence (Q86WV6 other isoform, or with tags, fused parts or gaps, stated change not applied): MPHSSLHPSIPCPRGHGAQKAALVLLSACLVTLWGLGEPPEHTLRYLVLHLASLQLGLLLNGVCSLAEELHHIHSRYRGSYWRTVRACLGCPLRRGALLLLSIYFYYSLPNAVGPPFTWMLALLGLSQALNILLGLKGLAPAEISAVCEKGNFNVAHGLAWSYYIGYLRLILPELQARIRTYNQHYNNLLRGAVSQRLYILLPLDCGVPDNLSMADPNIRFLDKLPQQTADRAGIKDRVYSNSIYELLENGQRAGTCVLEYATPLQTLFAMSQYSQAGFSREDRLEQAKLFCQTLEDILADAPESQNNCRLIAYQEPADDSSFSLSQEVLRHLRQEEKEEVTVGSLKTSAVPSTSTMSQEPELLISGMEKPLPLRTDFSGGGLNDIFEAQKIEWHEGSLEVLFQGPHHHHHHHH
From the text: as §1, with “the” for “their”, “Hi-Five” for “Trichoplusia ni”, “membranes” for “membranes (Tni; Expression Systems, cat #94-002F, www.expressionsystems.com)”, “HAQ” for “WT”
as §1, with “www.exrpressionsystems.com)” for “www.expressionsystems.com)”, “HAQ” for “WT”
The basic HAQ STING filtration assay protocol is as follows:
Compound and membrane then preincubated for 60 min at RT to allow compound binding to equilibrate. Following equilibration, 8 nM of [^3H] c-GAMP ligand was prepared by diluting into assay buffer, and 50 uL of this working stock was then manually added to each well of the assay plate. […] The filter plates were then dried at 55° C. for 30 min using a pressurized VWR oven before 30 uL of Ultima GoldF scintillate was added to each well. Tritium levels for each reaction well were then measured using a PerkinElmer TopCount plate reader.
as §2

full-length WT STING, sequence (Q86WV6 other isoform, or with tags, fused parts or gaps H232R (already in the parent)): as the sequence (Q86WV6 other isoform, or with tags, fused parts or gaps, stated change not applied) above, with H71R, A230G, Q293R counted along it

| Compound | EC50 (full-length WT STING) | % Effect at 30 μM relative to 2′3′-cGAMP (THP1 cells) | EC50 (full-length HAQ STING) | activation at 30 µM (THP1 cells) |
| --- | --- | --- | --- | --- |
| Nc1nc2c(ncn2[C@@H]2O[C@@H]3COP(O)(=S)O[C@@H]4[C@H](F)[C@@H](COP(O)(=S)O[C@@H]2[C@@H]3F)O[C@H]4n2cnc3c(=O)[nH]c(N)nc32)c(=O)[nH]1 (single isomer, unassigned) [Example 22] | < 1 nM | 129% | – | – |
| Nc1nc2c(ncn2[C@@H]2O[C@@H]3COP(O)(=S)O[C@@H]4[C@H](F)[C@@H](COP(O)(=S)O[C@@H]2[C@@H]3F)O[C@H]4n2cnc3c(=O)[nH]c(N)nc32)c(=O)[nH]1 (single isomer, unassigned) [Example 23] | 4 nM | 135% | – | – |
| Nc1nc2c(ncn2[C@@H]2O[C@@H]3COP(O)(=S)O[C@@H]4[C@H](F)[C@@H](COP(O)(=S)O[C@@H]2[C@@H]3F)O[C@H]4n2cnc3c(=O)[nH]c(N)nc32)c(=O)[nH]1 (single isomer, unassigned) [Example 24] | 1.2 nM | 84% | – | – |
| C[C@@H]1OP(=O)(O)O[C@@H]2[C@H](F)[C@@H](COP(=O)(O)O[C@@H]3[C@H](O)[C@@H]1O[C@H]3n1cnc3c(N)ncnc31)O[C@H]2n1cnc2c(=O)[nH]c(N)nc21 [Example 8, 2-amino-9-[(1R,6R,8R,9S,13S,14S,16R,17R,18R)-16-(6-amino-9H-purin-9-yl)-18-fluoro-3,11,17-trihydroxy-13-methyl-3,11-dioxido-2,4,7,10,12,15-hexaoxa-3,11-diphosphatricyclo[12.2.1.16,9]octadec-8-yl]-1,9-dihydro-6H-purin-6-one] | – | – | 102 nM | 36% |
| Nc1nc2c(ncn2[C@@H]2O[C@@H]3COP(=O)(O)O[C@@H]4C[C@@H](COP(=O)(O)O[C@@H]2[C@@H]3F)O[C@H]4n2cnc3c(N)ncnc32)c(=O)[nH]1 [Example 9, 2-amino-9-[(1R,6R,8R,9S,14S,16R,18R)-16-(6-amino-9H-purin-9-yl)-18-fluoro-3,11-dihydroxy-3,11-dioxido-2,4,7,10,12,15-hexaoxa-3,11-diphosphatricyclo[12.2.1.1^6,9]octadec-8-yl]-1,9-dihydro-6H-purin-6-one] | – | – | 3.7 nM | 115% |
| Nc1nc2c(ncn2[C@@H]2O[C@@H]3COP(=O)(O)O[C@@H]4[C@H](F)[C@@H](COP(=O)(O)O[C@@H]2[C@@H]3F)O[C@H]4n2cnc3c(N)ncnc32)c(=O)[nH]1 [Example 11, 2-amino-9-[(1S,6R,8R,9S,14R,16R,17R,18R)-16-(6-amino-9H-purin-9-yl)-17,18-difluoro-3,11-dihydroxy-3,11-dioxido-2,4,7,10,12,15-hexaoxa-3,11-diphosphatricyclo[12.2.1.1^6,9]octadec-8-yl]-1,9-dihydro-6H-purin-6-one] | – | – | < 1 nM | 131% |
| Nc1nc2c(ncn2[C@@H]2O[C@@H]3COP(=O)(O)O[C@@H]4C[C@@H](COP(=O)(O)O[C@@H]2C3)O[C@H]4n2cnc3c(N)ncnc32)c(=O)[nH]1 [Example 12, 2-amino-9-[(1R,6S,8R,9R,14S,16R)-16-(6-amino-9H-purin-9-yl)-3,11-dihydroxy-3,11-dioxido-2,4,7,10,12,15-hexaoxa-3,11-diphosphatricyclo[12.2.1.1^6,9]octadec-8-yl]-1,9-dihydro-6H-purin-6-one] | – | – | 674 nM | 50% |
| Nc1nc2c(ncn2[C@@H]2O[C@@H]3COP(=O)(O)O[C@@H]4[C@@H](F)[C@@H](COP(=O)(O)O[C@@H]2[C@@H]3F)O[C@H]4n2cnc3c(N)ncnc32)c(=O)[nH]1 [Example 13, 2-amino-9-[(1S,6R,8R,9S,14R,16R,17S,18R)-16-(6-amino-9H-purin-9-yl)-17,18-difluoro-3,11-dihydroxy-3,11-dioxido-2,4,7,10,12,15-hexaoxa-3,11-diphosphatricyclo[12.2.1.1^6,9]octadec-8-yl]-1,9-dihydro-6H-purin-6-one] | – | – | 11.2 nM | 128% |
| Nc1ncnc2c1ncn2[C@@H]1O[C@@H]2COP(=O)(S)O[C@@H]3[C@H](O)[C@@H](COP(=O)(S)O[C@@H]1[C@@H]2O)O[C@H]3n1cnc2c(N)ncnc21 (stereo partly drawn) [Example 27, (1R,6R,8R,9R,14R,16R,17R,18R)-8,16-bis(6-amino-9H-purin-9-yl)-3,11-disulfanyl-2,4,7,10,12,15-hexaoxa-3,11-diphosphatricyclo[12.2.1.1^6,9]octadecane-17,18-diol 3,11-dioxide] | – | – | 6.6 nM | 76% |
| Nc1nc2c(ncn2[C@@H]2O[C@@H]3COP(=O)(S)O[C@@H]4[C@@H](F)[C@@H](COP(=O)(S)O[C@@H]2[C@H]3F)O[C@H]4n2cnc3c(=O)[nH]c(N)nc32)c(=O)[nH]1 (stereo partly drawn) [Example 30, 9,9′-[(1S,6R,8R,9S,14R,16R,17S,18S)-17,18-difluoro-3,11-dioxido-3,11-disulfanyl-2,4,7,10,12,15-hexaoxa-3,11-diphosphatricyclo[12.2.1.1^6,9]octadecane-8,16-diyl]bis(2-amino-1,9-dihydro-6H-purin-6-one)] | 7350 nM | – | – | 8% |
| Nc1nc2c(nnn2[C@@H]2O[C@@H]3COP(=O)(S)O[C@@H]4[C@H](F)[C@@H](COP(=O)(S)O[C@@H]2[C@@H]3F)O[C@H]4n2nnc3c(=O)[nH]c(N)nc32)c(=O)[nH]1 (stereo partly drawn) [Example 31, 3,3′-[(1S,6R,8R,9S,14R,16R,17R,18R)-17,18-difluoro-3,11-dioxido-3,11-disulfanyl-2,4,7,10,12,15-hexaoxa-3,11-diphosphatricyclo[12.2.1.1^6,9]octadecane-8,16-diyl]bis(5-amino-3,6-dihydro-7H-[1,2,3]triazolo[4,5-d]pyrimidin-7-one)] | < 1 nM | – | – | 57% |
| Nc1nc2c(ncn2[C@@H]2O[C@@H]3COP(=O)(O)O[C@@H]4[C@H](N)[C@@H](COP(=O)(O)O[C@@H]2[C@@H]3O)O[C@H]4n2cnc3c(N)ncnc32)c(=O)[nH]1 [Example 33, 2-amino-9-[(1R,6R,8R,9R,14S,16R,17R,18R)-17-amino-16-(6-amino-9H-purin-9-yl)-3,11,18-trihydroxy-3,11-dioxido-2,4,7,10,12,15-hexaoxa-3,11-diphosphatricyclo[12.2.1.1^6,9]octadec-8-yl]-1,9-dihydro-6H-purin-6-one] | – | – | 1.6 nM | 140% |
